Data from patent US8697700B2, “Piperazinone-substituted tetrahydro-carboline MCH-1 antagonists, methods of making, and uses thereof” (Albany Molecular Research, Inc., priority 2010, dated 2014).
pKi: −log10 of the molar value. Where a name gives a salt, the structure may show the parent alone.

Biological target: T1, human MCH-1 receptor (Homo sapiens, UniProt Q99705)
T1 construct: purchased Euroscreen Batch 1138
T1 sequence (Q99705 whole entry): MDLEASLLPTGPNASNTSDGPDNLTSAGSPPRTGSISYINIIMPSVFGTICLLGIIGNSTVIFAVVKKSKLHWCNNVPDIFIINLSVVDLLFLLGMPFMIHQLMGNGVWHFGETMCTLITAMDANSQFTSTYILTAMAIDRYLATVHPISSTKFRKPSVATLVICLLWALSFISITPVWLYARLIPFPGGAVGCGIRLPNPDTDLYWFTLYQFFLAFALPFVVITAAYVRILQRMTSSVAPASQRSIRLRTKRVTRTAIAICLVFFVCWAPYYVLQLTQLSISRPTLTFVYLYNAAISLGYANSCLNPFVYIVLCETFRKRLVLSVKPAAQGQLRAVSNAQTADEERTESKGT
Assay: Binding assay for human MCH-1 receptor (radioligand displacement)
Settings: membranes from CHO-K1 cells expressing human MCH-1 receptor; 1.4 nM [3H]-labeled compound; 60 min at 25° C.; Ki from Cheng Prusoff equation; read-out: MCH1 Ki
Procedure: Evaluation of the affinity of compounds for the human MCH-1 receptor was accomplished using 4-(3,4,5-tritritiumbenzyloxy)-1-(1-(2-(pyrrolidin-1-yl)ethyl)-1H-indazol-5-yl)pyridin-2(1H)-one and membranes prepared from stable CHO-K1 cells expressing the human MCH-1 receptor obtained from Euroscreen (Batch 1138). Cell membrane homogenates (8.92 μg protein) were incubated for 60 min at 25° C. with 1.4 nM of the [^3H]-labeled compound in the absence or presence of the test compound in 50 mM Tris-HCl buffer, pH 7.4. Nonspecific binding was determined in the presence of 50 μM 1-(5-(4-cyanophenyl)bicyclo[3.1.0]hexan-2-yl)-3-(4-fluoro-3-(trifluoromethyl)phenyl)-1-(3-(4-methylpiperazin-1-yl)propyl)urea. Following incubation, the samples were filtered rapidly under vacuum through Skatron 11731 filters, pre-soaked in 0.5% polyethylenimine, and washed with ice-cold 50 mM Tris-HCl buffer, pH 7.4, (wash setting 9,9,0) using a Skatron cell harvester. The filters were counted for radioactivity in a liquid scintillation counter (Tri-Carb 2100TR, Packard) using a scintillation cocktail (Ultima Gold MV, Perkin Elmer).
The results are expressed as a percent inhibition of the control radioligand specific binding. The IC50 value (concentration causing a half-maximal inhibition of control specific binding) and Hill coefficient (nH) were determined by non-linear regression analysis of the competition curve using Hill equation curve fitting. The inhibition constant (Ki) was calculated from the Cheng Prusoff equation: (Ki=IC50/(1+(L/KD)), where L=concentration of radioligand in the assay, and KD=affinity of the radioligand for the receptor.
CC1Cc2c(c3ccc(N4CCN(CCc5ccc(F)cc5)CC4=O)cc3n2C)CN1.Cl (single isomer, unassigned; enantiomer a) [Example 15, 1-(3,5-Dimethyl-2,3,4,5-tetrahydro-1H-pyrido[4,3-b]indol-7-yl)-4-(4-fluorophenethyl)piperazin-2-one hydrochloride (Enantiomer A)] gave a pKi of 7.96.
Work on CC1Cc2c(c3ccc(N4CCN(CCc5ccc(Cl)cc5)CC4=O)cc3n2C)CN1 (single isomer, unassigned; enantiomer a) [Example 17, 4-(4-Chlorophenethyl)-1-(3,5-dimethyl-2,3,4,5-tetrahydro-1H-pyrido[4,3-b]indol-7-yl)piperazin-2-one hydrochloride (Enantiomer A)] yielded a pKi of 8.12.
CC(=O)N1Cc2c(n(C)c3cc(N4CCN(CCc5ccc(Cl)cc5)CC4=O)ccc23)CC1C (single isomer, unassigned; enantiomer a) [Example 18, 1-(2-Acetyl-3,5-dimethyl-2,3,4,5-tetrahydro-1H-pyrido[4,3-b]indol-7-yl)-4-(4-chlorophenethyl)piperazin-2-one (Enantiomer A)] gave a pKi of 7.31.
Compound Cn1c2c(c3ccc(N4CCN(CCc5ccccc5)CC4=O)cc31)CCNC2 [Example 2, 1-(9-Methyl-2,3,4,9-tetrahydro-1H-pyrido[3,4-b]indol-7-yl)-4-phenethylpiperazin-2-one hydrochloride] has a pKi of 7.59.
For Cn1c2c(c3ccc(N4CCN(CCc5ccccn5)CC4=O)cc31)CCNC2 [Example 3, 1-(9-Methyl-2,3,4,9-tetrahydro-1H-pyrido[3,4-b]indol-7-yl)-4-(2-(pyridin-2-yl)ethyl)piperazin-2-one dihydrochloride], the pKi was 7.37.
For CN1CCc2c(n(C)c3cc(N4CCN(CCc5ccccc5)CC4=O)ccc23)C1 [Example 4, 1-(2,9-Dimethyl-2,3,4,9-tetrahydro-1H-pyrido[3,4-b]indol-7-yl)-4-phenethylpiperazin-2-one dihydrochloride], the pKi was 7.68.
For Cn1c2c(c3ccc(N4CCN(c5ccc(C(F)(F)F)cn5)CC4=O)cc31)CNCC2 [Example 5, 1-(5-Methyl-2,3,4,5-tetrahydro-1H-pyrido[4,3-b]indol-7-yl)-4-(5-(trifluoromethyl)pyridin-2-yl)piperazin-2-one dihydrochloride], the pKi was 6.27.
Cn1c2c(c3ccc(N4CCN(CCc5ccccc5)CC4=O)cc31)CNCC2 [Example 6, 1-(5-Methyl-2,3,4,5-tetrahydro-1H-pyrido[4,3-b]indol-7-yl)-4-phenethylpiperazin-2-one dihydrochloride] showed a pKi of 7.96.
Compound CN1CCc2c(c3ccc(N4CCN(CCc5ccccc5)CC4=O)cc3n2C)C1 [Example 7, 1-(2,5-Dimethyl-2,3,4,5-tetrahydro-1H-pyrido[4,3-b]indol-7-yl)-4-phenethylpiperazin-2-one hydrochloride] has a pKi of 7.92.
Work on Cn1c2c(c3ccc(N4CCN(CCc5ccccn5)CC4=O)cc31)CNCC2 [Example 8, 1-(5-Methyl-2,3,4,5-tetrahydro-1H-pyrido[4,3-b]indol-7-yl)-4-(2-(pyridin-2-yl)ethyl)piperazin-2-one dihydrochloride] yielded a pKi of 6.91.
With O=C1CN(CCc2ccccc2)CCN1c1ccc2c3c([nH]c2c1)CCNC3 [Example 9, 4-Phenethyl-1-(2,3,4,5-tetrahydro-1H-pyrido[4,3-b]indol-7-yl)piperazin-2-one dihydrochloride] the pKi was 7.77.
CC(=O)N1CCc2c(c3ccc(N4CCN(CCc5ccccc5)CC4=O)cc3n2C)C1 [Example 10, 1-(2-Acetyl-5-methyl-2,3,4,5-tetrahydro-1H-pyrido[4,3-b]indol-7-yl)-4-phenethylpiperazin-2-one] showed a pKi of 7.24.
For Cn1c2c(c3ccc(N4CCN(CCc5ccc(F)cc5)CC4=O)cc31)CNCC2 [Example 11, 4-(4-Fluorophenethyl)-1-(5-methyl-2,3,4,5-tetrahydro-1H-pyrido[4,3-b]indol-7-yl)piperazin-2-one dihydrochloride], the pKi was 8.15.
For CC1Cc2c(c3ccc(N4CCN(CCc5ccc(F)cc5)CC4=O)cc3n2C)CN1.Cl (centres unmarked) [Example 12, 1-(3,5-Dimethyl-2,3,4,5-tetrahydro-1H-pyrido[4,3-b]indol-7-yl)-4-(4-fluorophenethyl)piperazin-2-one hydrochloride], the pKi was 8.01.
With CC1Cc2c(c3ccc(N4CCN(CCc5ccc(Cl)cc5)CC4=O)cc3n2C)CN1.Cl (centres unmarked) [Example 13, 4-(4-Chlorophenethyl)-1-(3,5-dimethyl-2,3,4,5-tetrahydro-1H-pyrido[4,3-b]indol-7-yl)piperazin-2-one hydrochloride] the pKi was 8.28.
In the case of Cn1c2c(c3ccc(N4CCN(CCc5ccc(Cl)cc5)CC4=O)cc31)CNCC2 [Example 14, 4-(4-Chlorophenethyl)-1-(5-methyl-2,3,4,5-tetrahydro-1H-pyrido[4,3-b]indol-7-yl)piperazin-2-one dihydrochloride], the pKi was 8.24.
Work on Cn1c2c(c3ccc(N4CCN(CCc5ccc(F)cc5)CC4=O)cc31)C(C)(C)NCC2 [Example 16, 4-(4-Fluorophenethyl)-1-(1,1,5-trimethyl-2,3,4,5-tetrahydro-1H-pyrido[4,3-b]indol-7-yl)piperazin-2-one dihydrochloride] yielded a pKi of 7.77.

Test system: not given
Assay: not given
Settings: not given
CC1Cc2c(c3ccc(N4CCN(CCc5ccc(F)cc5)CC4=O)cc3n2C)CN1.Cl (single isomer, unassigned; enantiomer a) [Example 15, 1-(3,5-Dimethyl-2,3,4,5-tetrahydro-1H-pyrido[4,3-b]indol-7-yl)-4-(4-fluorophenethyl)piperazin-2-one hydrochloride (Enantiomer A)] showed a melting point of 295 to 300 °C.
Compound CC1Cc2c(c3ccc(N4CCN(CCc5ccc(F)cc5)CC4=O)cc3n2C)CN1.Cl (centres unmarked) [Example 12, 1-(3,5-Dimethyl-2,3,4,5-tetrahydro-1H-pyrido[4,3-b]indol-7-yl)-4-(4-fluorophenethyl)piperazin-2-one hydrochloride] has a melting point of 280 to 285 °C.
Work on CC1Cc2c(c3ccc(N4CCN(CCc5ccc(Cl)cc5)CC4=O)cc3n2C)CN1.Cl (centres unmarked) [Example 13, 4-(4-Chlorophenethyl)-1-(3,5-dimethyl-2,3,4,5-tetrahydro-1H-pyrido[4,3-b]indol-7-yl)piperazin-2-one hydrochloride] yielded a melting point of 294 to 300 °C.
